According to ChEMBL document CHEMBL1201862, “PubChem BioAssay data set” (2004):
Activity calls are given as the source filed them.

Tests used:
[1] = blockers of HIV-1 envelope-mediated cell-cell fusion – cherry-pick, dose response (AID 652057); type: functional, cell-based
[2] = target: T1, Corticotropin-releasing factor receptor 2/Corticotropin-releasing factor-binding protein (Homo sapiens, UniProt P24387+Q13324); assay: activators of CRF receptor 2 with binding protein – uHTS hits, confirmation (AID 602473); type: functional; settings: read-out: EC50_Mean
T1 sequence (Q13324 whole entry): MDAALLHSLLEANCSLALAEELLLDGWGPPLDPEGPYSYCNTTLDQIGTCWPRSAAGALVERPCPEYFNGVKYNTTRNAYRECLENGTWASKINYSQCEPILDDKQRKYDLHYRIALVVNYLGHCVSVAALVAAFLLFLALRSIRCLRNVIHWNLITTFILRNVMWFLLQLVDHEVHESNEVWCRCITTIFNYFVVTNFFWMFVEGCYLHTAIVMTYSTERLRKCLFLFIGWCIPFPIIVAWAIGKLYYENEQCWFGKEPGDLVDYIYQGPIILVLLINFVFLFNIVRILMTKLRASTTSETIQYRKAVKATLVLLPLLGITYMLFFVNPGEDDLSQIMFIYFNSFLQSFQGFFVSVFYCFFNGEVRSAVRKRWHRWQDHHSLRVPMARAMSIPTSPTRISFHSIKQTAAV
T1 sequence (P24387 whole entry): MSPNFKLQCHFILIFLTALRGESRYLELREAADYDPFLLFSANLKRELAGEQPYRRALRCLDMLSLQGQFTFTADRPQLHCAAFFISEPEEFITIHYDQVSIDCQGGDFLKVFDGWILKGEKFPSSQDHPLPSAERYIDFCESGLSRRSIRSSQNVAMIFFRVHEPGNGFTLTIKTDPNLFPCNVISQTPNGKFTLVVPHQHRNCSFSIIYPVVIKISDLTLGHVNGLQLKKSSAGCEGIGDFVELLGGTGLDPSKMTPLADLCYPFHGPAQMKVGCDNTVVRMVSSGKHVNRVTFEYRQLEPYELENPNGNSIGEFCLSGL

[3] = target: T1, Corticotropin-releasing factor receptor 2/Corticotropin-releasing factor-binding protein; assay: Dose Response confirmation of uHTS hits for small molecule antagonists of the CRF-binding protein and CRF-R2 receptor complex.; type: functional; settings: read-out: IC50_Mean
[4] = viability of uninfected HEp-2 cells – cell-based, HTS, cytotoxicity control for RSV inhibitor project, dose response (AID 2410); type: functional; settings: human respiratory syncytial virus
[5] = fluconazole-exposed Candida albicans growth modulators – fluorescence, retest, confirmation (AID 2467); type: functional, cell-based
[6] = NIH-3T3 fibroblast cytotoxicity, dose response, cytotoxicity control, cell-based, fluorescence, Alamar Blue, secondary assay (AID 2327); type: functional;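 note: NIH-3T3 mouse fibroblasts cultured with fluconazole at 8 µg/mL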
[7] = target: FAD-linked sulfhydryl oxidase ALR (Homo sapiens, UniProt P55789); assay: ALR-catalysed DTT oxidation blockers – biochemical, H2O2 detection, luminescence, cherry-pick, dose response (AID 493248)
Chain of FAD-linked sulfhydryl oxidase ALR (P55789 whole entry): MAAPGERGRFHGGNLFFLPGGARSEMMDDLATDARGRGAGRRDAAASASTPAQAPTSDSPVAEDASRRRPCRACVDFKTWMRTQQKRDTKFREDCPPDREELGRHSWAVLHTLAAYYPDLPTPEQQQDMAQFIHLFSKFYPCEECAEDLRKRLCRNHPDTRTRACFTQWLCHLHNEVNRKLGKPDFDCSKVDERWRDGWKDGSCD

[8] = DRD fibroblast viability loss – cell-based, non-viral oncogenic, luminescence, dose response (AID 1934); type: functional; settings: Homo sapiens
BJ [9] = assay: cells; type: functional, cell-based; settings: Homo sapiens
BJ [10] = assay: BJ-TERT fibroblast viability loss – cell-based, RAS-independent, luminescence, dose response (AID 1933); type: functional; settings: Homo sapiens
BJ [11] = assay: BJ-TERT-LT-ST fibroblast viability loss – cell-based, RAS-independent, luminescence, dose response (AID 1935); type: functional; settings: Homo sapiens;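 note: BJ fibroblasts immortalized with TERT plus LT and ST oncogenes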
Cytochrome P450 3A4 = Cytochrome P450 3A4 (Homo sapiens, UniProt P08684);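 note: CYP3A4 tested as one member of a cytochrome P450 panel screen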
Chain of Cytochrome P450 3A4 (P08684 whole entry): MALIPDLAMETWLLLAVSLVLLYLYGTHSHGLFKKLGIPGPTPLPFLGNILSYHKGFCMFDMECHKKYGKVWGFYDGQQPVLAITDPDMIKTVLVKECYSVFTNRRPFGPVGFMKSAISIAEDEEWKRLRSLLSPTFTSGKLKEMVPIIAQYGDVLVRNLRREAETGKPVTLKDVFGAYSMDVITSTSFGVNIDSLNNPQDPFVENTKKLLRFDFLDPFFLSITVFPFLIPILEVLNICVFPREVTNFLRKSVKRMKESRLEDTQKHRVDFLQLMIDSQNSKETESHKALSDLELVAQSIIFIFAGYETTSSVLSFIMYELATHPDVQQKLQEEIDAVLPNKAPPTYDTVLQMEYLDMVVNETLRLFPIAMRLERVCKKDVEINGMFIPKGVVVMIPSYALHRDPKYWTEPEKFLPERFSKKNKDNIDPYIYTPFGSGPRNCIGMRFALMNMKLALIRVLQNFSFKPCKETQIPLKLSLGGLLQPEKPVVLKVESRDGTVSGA

Cytochrome P450 2D6 = Cytochrome P450 2D6 (Homo sapiens, UniProt P10635);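 note: CYP2D6 member of a cytochrome P450 panel assay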
Chain of Cytochrome P450 2D6 (P10635 whole entry): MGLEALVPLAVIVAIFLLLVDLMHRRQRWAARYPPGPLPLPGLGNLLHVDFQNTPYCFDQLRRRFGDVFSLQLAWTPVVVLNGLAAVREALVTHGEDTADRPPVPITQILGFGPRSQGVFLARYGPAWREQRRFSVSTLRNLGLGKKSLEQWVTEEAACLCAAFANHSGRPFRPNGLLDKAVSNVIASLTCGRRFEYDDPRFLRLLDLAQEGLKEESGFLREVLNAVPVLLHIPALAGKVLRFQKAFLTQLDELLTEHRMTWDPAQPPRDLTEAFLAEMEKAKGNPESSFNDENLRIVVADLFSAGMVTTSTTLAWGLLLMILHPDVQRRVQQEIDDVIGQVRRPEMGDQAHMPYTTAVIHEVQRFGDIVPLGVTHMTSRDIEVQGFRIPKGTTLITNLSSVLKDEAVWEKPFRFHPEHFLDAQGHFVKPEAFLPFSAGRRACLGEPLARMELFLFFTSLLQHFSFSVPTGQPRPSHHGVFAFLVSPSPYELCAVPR

Cytochrome P450 2C19 = Cytochrome P450 2C19 (Homo sapiens, UniProt P33261); assay: Cytochrome panel assay with activity outcomes. Panel member name: p450-cyp2c19 Compounds with AC50 equal or less than 10 uM are considered active; type: functional; settings: read-out: AC50
Chain of Cytochrome P450 2C19 (P33261 whole entry): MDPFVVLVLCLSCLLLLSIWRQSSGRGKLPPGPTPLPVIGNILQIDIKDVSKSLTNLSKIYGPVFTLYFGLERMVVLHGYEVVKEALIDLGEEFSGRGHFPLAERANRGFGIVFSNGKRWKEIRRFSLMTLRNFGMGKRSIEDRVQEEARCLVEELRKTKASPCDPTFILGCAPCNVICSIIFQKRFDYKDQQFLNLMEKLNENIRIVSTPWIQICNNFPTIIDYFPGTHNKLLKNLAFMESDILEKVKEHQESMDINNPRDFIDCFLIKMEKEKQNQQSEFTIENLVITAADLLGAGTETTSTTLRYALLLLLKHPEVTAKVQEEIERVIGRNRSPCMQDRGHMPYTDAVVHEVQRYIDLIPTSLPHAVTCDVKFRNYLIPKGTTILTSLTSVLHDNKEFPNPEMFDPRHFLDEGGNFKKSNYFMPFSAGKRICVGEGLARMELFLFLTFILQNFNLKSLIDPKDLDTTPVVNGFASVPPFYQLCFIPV

Cytochrome P450 2C9 = Cytochrome P450 2C9 (Homo sapiens, UniProt P11712)
Chain of Cytochrome P450 2C9 (P11712 whole entry): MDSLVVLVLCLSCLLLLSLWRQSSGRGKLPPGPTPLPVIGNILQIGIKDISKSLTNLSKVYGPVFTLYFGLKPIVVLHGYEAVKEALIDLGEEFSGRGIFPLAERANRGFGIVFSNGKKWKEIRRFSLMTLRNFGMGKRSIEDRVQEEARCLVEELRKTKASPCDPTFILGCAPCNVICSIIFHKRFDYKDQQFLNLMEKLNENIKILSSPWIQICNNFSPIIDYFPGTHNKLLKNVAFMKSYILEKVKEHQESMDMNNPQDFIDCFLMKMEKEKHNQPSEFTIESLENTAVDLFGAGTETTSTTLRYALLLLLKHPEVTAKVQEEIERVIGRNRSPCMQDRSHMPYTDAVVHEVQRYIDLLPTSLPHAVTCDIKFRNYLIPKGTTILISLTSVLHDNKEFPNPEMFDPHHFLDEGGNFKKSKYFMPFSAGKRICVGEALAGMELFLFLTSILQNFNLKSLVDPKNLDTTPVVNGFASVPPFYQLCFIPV

[12] = target: Luciferin 4-monooxygenase (Photinus pyralis, UniProt P08659); assay: inhibition of purified Photinus pyralis luciferase – biochemical, luminescence, dose response (AID 1891)
Chain of Luciferin 4-monooxygenase (P08659 whole entry): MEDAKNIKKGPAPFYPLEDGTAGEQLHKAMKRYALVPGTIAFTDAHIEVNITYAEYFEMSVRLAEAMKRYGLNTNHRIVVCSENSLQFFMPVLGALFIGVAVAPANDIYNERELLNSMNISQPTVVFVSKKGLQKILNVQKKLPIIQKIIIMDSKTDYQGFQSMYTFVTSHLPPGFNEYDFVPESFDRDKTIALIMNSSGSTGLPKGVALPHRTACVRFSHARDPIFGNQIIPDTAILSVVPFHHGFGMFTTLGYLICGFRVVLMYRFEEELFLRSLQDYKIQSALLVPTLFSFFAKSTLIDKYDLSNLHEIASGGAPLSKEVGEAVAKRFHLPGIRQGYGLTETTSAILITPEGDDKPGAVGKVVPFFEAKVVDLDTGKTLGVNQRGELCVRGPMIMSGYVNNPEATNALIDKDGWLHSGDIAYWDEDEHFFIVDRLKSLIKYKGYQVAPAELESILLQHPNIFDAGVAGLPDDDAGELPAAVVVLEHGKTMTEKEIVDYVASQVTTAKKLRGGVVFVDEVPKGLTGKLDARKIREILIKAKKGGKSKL

[13] = Luminescence Cell-Based Dose Confirmation HTS to Identify Inhibitors of Platelet Dense Granule Release. [Related pubchem assays: 1663 (Primary HTS), 1678 (Summary of Project)]; type: functional
[14] = target: T2, Rac GTPase-activating protein 1 (Homo sapiens, UniProt Q9H0H5); assay: blockers of MgcRacGAP-driven Rac1 GTP hydrolysis – biochemical, ADP Hunter fluorescence, primary and confirmatory, confirmation (AID 624330); type: functional
T2 sequence (Q9H0H5 whole entry): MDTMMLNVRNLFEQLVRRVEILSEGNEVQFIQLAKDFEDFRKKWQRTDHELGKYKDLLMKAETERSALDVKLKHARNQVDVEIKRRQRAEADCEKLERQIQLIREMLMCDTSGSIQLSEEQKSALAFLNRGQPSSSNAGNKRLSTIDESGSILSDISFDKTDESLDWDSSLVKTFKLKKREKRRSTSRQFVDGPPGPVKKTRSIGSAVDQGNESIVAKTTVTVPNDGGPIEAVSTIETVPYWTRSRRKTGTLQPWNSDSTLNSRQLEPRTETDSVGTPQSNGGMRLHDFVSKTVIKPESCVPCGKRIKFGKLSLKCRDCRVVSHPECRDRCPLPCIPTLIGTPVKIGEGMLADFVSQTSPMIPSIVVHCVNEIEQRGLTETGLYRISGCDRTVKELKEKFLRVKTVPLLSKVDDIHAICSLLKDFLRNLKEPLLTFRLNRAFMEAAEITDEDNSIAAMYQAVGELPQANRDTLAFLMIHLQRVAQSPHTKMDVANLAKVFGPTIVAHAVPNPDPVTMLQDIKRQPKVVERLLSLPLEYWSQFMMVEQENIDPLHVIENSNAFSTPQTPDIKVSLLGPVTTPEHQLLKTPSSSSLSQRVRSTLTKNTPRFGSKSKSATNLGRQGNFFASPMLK

Paired box protein Pax-8 = Paired box protein Pax-8 (Homo sapiens, UniProt Q06710); assay: PAX8 transcriptional activity inhibition in RMG-I – RMG-I cells, luciferase, cherry-pick, dose response (AID 687027); type: functional, cell-based;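 note: luciferase reporter driven by Pax8 target thyroperoxidase promoter measured by SteadyGlo luminescence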
Chain of Paired box protein Pax-8 (Q06710 whole entry): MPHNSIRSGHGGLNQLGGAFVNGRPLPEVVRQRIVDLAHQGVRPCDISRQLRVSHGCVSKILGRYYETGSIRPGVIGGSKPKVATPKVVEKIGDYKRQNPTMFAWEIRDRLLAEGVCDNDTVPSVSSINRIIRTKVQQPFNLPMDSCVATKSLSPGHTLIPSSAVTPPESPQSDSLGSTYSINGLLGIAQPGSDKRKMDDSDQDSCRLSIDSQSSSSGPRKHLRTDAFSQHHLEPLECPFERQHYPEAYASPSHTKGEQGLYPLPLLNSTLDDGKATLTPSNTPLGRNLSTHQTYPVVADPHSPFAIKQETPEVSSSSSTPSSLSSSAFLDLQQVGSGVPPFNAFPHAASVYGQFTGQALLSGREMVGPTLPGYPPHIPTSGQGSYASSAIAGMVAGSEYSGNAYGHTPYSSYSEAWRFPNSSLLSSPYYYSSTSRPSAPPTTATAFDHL

[15] = reduction of Shn3 3'UTR-driven luciferase in osteoblasts – cell-based, Clone20 osteoblasts, firefly luciferase, cherry-picked, dose response (AID 624132); type: functional;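 note: firefly luciferase luminescence from reporter carrying the Shn3 3'UTR in osteoblasts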
[16] = non-specific 3'UTR reporter inhibition in Clone20-Shn3RL – cell-based, Renilla luciferase, cherry-picked, counter-screen for Shn3 inhibitor project, dose response (AID 624133); type: functional

SMILES: C[C@H]1CN([C@@H](C)CO)S(=O)(=O)c2ccc(-c3cccc(F)c3)cc2O[C@H]1CN(C)S(=O)(=O)c1ccccc1
- AC50 [1]: 25.7 µM (active)

SMILES: CCOc1ccc(NC(=O)CSc2ccc3nnc(-c4cccnc4)n3n2)cc1
- EC50 [2]: > 53 µM (inactive)
- IC50 [3]: > 47.1 µM (inactive)

SMILES: COc1ccccc1C(=O)Nc1ccc(S(=O)(=O)N2CCCCC2c2cccnc2)cc1 (stereo not given)
- CC50 [4]: 31.9 µM (active)

SMILES: Cc1nc(Nc2ccccc2Cl)sc1C(=O)Nc1ccccc1
- EC50 [5]: > 38 µM (not active)
- EC50 [6]: 28.6 µM (active)

SMILES: O=C(c1ccccc1)c1nc2ccccc2nc1O
- EC50 [2]: > 53 µM (inactive)
- IC50 [3]: > 47.1 µM (inactive)

SMILES: Cc1ccc(NC2CCCN(C(=O)C3CCCC3)C2)cc1C (stereo not given)
- AC50 [7]: 4.78 µM (active)

SMILES: Cc1ccc2nc(N=C(N)NC(=O)N3c4ccccc4Sc4ccccc43)nc(C)c2c1
- CC50 [4]: 12.8 µM (active)

SMILES: COc1ccc2oc(C(=O)NCCC(C)C)c(C)c2c1
- EC50 [2]: > 53 µM (inactive)
- IC50 [3]: > 47.1 µM (inactive)

SMILES: CN(Cc1ccccc1)S(=O)(=O)c1ccc(C(=O)Nc2nnc(C3CC3)o2)cc1
- EC50 [5]: 1.76 µM (active)
- EC50 [6]: > 160 µM (inactive)

SMILES: CC(C)NC(=O)COC(=O)c1cccc(NS(=O)(=O)/C=C/c2ccccc2)c1
- EC50 [6]: > 160 µM (inactive)

SMILES: CCCn1c(SCC(=O)Nc2ccccc2OC)nnc1-c1ccco1
- EC50 [8]: 21.1 µM (active)
- EC50 (BJ [9]): 50.9 µM (active)
- EC50 (BJ [10]): 29.2 µM (active)
- EC50 (BJ [11]): > 150 µM (inconclusive)

SMILES: COc1cccc(NC(=O)C2CCCN(S(=O)(=O)c3ccc(-n4cnnn4)cc3)C2)c1 (stereo not given)
- EC50 [2]: > 53 µM (inactive)
- IC50 [3]: > 47.1 µM (inactive)

SMILES: Cc1ccccc1C(=O)c1c[nH]c(C(=O)NCc2cccs2)c1
- AC50 (Cytochrome P450 3A4): 22.4 µM (inconclusive)
- AC50 (Cytochrome P450 2D6): 14.1 µM (inconclusive)
- AC50 (Cytochrome P450 2C19): 25.1 µM (inconclusive)
- AC50 (Cytochrome P450 2C9): 3.55 µM (inconclusive)

SMILES: CCOC(=O)c1[nH]c(C)c(C(=O)N2CCN(c3cccc(Cl)c3)CC2)c1C
- CC50 [4]: 20.9 µM (active)

SMILES: CCCOc1cccc(-c2cc(C(=O)NN=C(S)NCC)c3ccccc3n2)c1
- EC50 [5]: > 38 µM (not active)
- EC50 [12]: 1.41 µM (active)
- EC50 [6]: > 160 µM (inactive)
- EC50 [13]: > 112 µM (not active)

SMILES: Nc1ccc(C(=O)c2cccs2)cc1[N+](=O)[O-]
- CC50 [4]: 36.8 µM (active)

SMILES: COc1cccc(N2CCN(CC(=O)NCc3cccs3)CC2)c1
- AC50 [7]: 4.1 µM (active)

SMILES: Cc1ccc(NC2CCCN(C(=O)c3snnc3C)C2)cc1C (stereo not given)
- AC50 [7]: 1.64 µM (active)

SMILES: CC(C)(C)N1C(=O)c2ccc(C(=O)Nc3ccc(O)cc3)cc2C1=O
- IC50 [14]: 26.8 µM (active)
- AC50 [7]: 3.13 µM (active)

SMILES: COc1ccc(C(=O)Nc2ccc(C3CC3(Cl)Cl)cc2)cc1 (stereo not given)
- EC50 [2]: > 53 µM (inactive)
- IC50 [3]: > 47.1 µM (inactive)

SMILES: COc1ccc(NC(=O)CN(C)C(=O)c2cccc(S(=O)(=O)N3CCN(c4ccc(F)cc4)CC3)c2)cc1
- EC50 [2]: > 53 µM (inactive)
- IC50 [3]: > 47.1 µM (inactive)

SMILES: COc1cc(CNc2ncc(-c3ccc(Cl)cc3)n2C)cc(OC)c1OC
- AC50 [7]: 4.59 µM (active)

SMILES: CC(=O)Nc1ccc(OCC(O)CN2C(C)(C)CC(O)CC2(C)C)cc1 (stereo not given)
- EC50 [2]: > 53 µM (inactive)
- IC50 [3]: > 47.1 µM (inactive)

SMILES: Cc1ccccc1NC(=O)Cc1nc(CCl)cs1
- AC50 [7]: 10.8 µM (active)

SMILES: C=CCOc1ccc(CN(C)CC(O)COc2cccc3ccccc23)cc1 (stereo not given)
- CC50 [4]: 26.1 µM (active)

SMILES: O=C(C[C@@H]1C[C@H]2c3cc(NC(=O)Nc4ccc(C(F)(F)F)cc4)ccc3O[C@H]2[C@H](CO)O1)NCCc1ccccc1
- AC50 (Paired box protein Pax-8): 15.9 µM (active)

SMILES: CCc1c(C)nc2cc(-c3ccc(OC)c(OC)c3)nn2c1NCC1CC1
- CC50 [4]: 13.7 µM (active)
- AC50 [15]: 5.11 µM (active)
- AC50 [16]: 5.44 µM (active)

SMILES: Cc1cc(Nc2nc3ccccc3nc2O)n(-c2ccccc2)n1
- CC50 [4]: 16.6 µM (active)

SMILES: O=C(CSc1nc(-c2ccco2)cc(C(F)(F)F)n1)NCCCN1CCOCC1
- EC50 [2]: > 53 µM (inactive)
- IC50 [3]: > 47.1 µM (inactive)

SMILES: O=C(COC(=O)C1CCN(S(=O)(=O)c2ccc3c(c2)OCCO3)CC1)NC1CCS(=O)(=O)C1 (stereo not given)
- EC50 [2]: > 53 µM (inactive)
- IC50 [3]: > 47.1 µM (inactive)

SMILES: CCCn1c(C(C)Nc2nc(-c3ccc(Cl)c([N+](=O)[O-])c3)cs2)nc2ccccc21 (stereo not given)
- CC50 [4]: 29.7 µM (active)

SMILES: CCC1=Nc2cc(C(=O)NCCN3CCOCC3)ccc2Sc2ccc(Br)cc21
- EC50 [8]: > 150 µM (not active)
- EC50 (BJ [9]): > 150 µM (not active)
- EC50 (BJ [10]): > 150 µM (not active)
- EC50 (BJ [11]): > 150 µM (not active)

SMILES: CCC(CO)Nc1nc2ccc(Cl)cc2c2ccccc12 (stereo not given)
- CC50 [4]: 14.5 µM (active)

SMILES: CC(C)N1CCN(Cc2nc(-c3ccccc3)cs2)CC1CCO (stereo not given)
- EC50 [2]: > 53 µM (inactive)
- IC50 [3]: > 47.1 µM (inactive)

SMILES: CCOC(=O)c1nnn(-c2nonc2N)c1CN(C)C1CCCCC1
- EC50 [2]: > 53 µM (inactive)
- IC50 [3]: > 47.1 µM (inactive)

SMILES: COc1ccc(NCc2nc3ccccc3n2C)cc1
- AC50 [7]: 3.46 µM (active)

SMILES: CC/C(=N\NC(N)=O)c1ccc(OC(F)F)cc1
- CC50 [4]: 27.5 µM (active)
